We go through 10 molecules from patent US7256207B2, “Inhibitors of cathepsin S” (IRM LLC, priority 2003, dated 2007).

Holding throughout (type): biochemical
The target in one experiment is T1, Cathepsin K (Homo sapiens, UniProt P43235).
T1 sequence (P43235 115-329): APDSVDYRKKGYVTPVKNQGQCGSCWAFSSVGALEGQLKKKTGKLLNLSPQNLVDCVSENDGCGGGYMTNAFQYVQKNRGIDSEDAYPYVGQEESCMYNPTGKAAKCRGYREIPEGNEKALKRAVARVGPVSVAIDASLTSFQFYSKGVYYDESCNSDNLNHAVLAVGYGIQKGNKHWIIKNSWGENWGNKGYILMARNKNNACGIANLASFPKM
The experiment is described as follows: Cathepsin K inhibition assay, fluorogenic peptide substrate (selectivity for Cat. S over Cat. K). To be noted: ratio of cathepsin K inhibition constant to cathepsin S inhibition constant. How it is done:
(§1) The optimal substrate for cathepsin K, acetyl-lysine-histidine-proline-lysine-amino carbamoyl coumarin, was identified from screening a combinatorial library of fluorogenic peptide substrates (Harris, J. L., B. J. Backes, et al. Proc Natl Acad Sci U S A 2000, 97(14), 7754-9). Kinetic measurements are performed in a total reaction volume of 30 μl in 384-well microtiter plates. Cathepsin K, at a final concentration of 3.5 nM (active site), is incubated with the compounds at twelve varying concentrations in a buffer containing 100 mM NaAc (pH5.5), 1 mM EDTA, 100 mM NaCl, 0.01% Brij-35 for 20 minutes at room temperature. Control reactions in the absence of inhibitor are performed in replicates of 24. The reactions are initiated by adding the substrate, acetyl-lysine-histidine-proline-lysine-amino carbamoyl coumarin, to a final concentration of 40 μM. The rate of substrate hydrolysis is measured by monitoring the increase in fluorescence at an excitation wavelength of 380 nm and an emission wavelength of 450 nm that results from cleavage of the aniline bond in the substrate by the enzyme. The apparent inhibition constants for the compounds are determined from the enzyme progress curves (Kuzmic, P., K. C. Elrod, et al. Anal Biochem 2000, 286(1), 45-50) and are then used to calculate the inhibition constants for competitive inhibitors.
(§2) Selectivity for cathepsin S in the presence of cathepsin isozymes was determined by the ratio of the cathepsin isozyme inhibition constant of a compound of the present invention to the cathepsin S inhibition constant of the same compound. Preferred compounds of the present invention selective for cathepsin S have ratios of greater than 10. More preferred compounds of the present invention selective for cathepsin S have ratios of greater than 100. Most preferred compounds of the present invention selective for cathepsin S have ratios of greater than 1000.

The next experiment deals with Cathepsin B (Homo sapiens, UniProt P07858). The experiment is described as follows: Cathepsin B inhibition assay, fluorogenic peptide substrate (selectivity for Cat. S over Cat. B). To be noted: ratio of cathepsin B inhibition constant to cathepsin S inhibition constant. Here is the method: as §1, with “B, acetyl-histidine-proline-valine-lysine-amino” for “K, acetyl-lysine-histidine-proline-lysine-amino”, “B,” for “K,”, “1.5” for “3.5”, “acetyl-histidine-proline-valine-lysine-amino” for “acetyl-lysine-histidine-proline-lysine-amino”, “[…].” for “40 μM.”
as §2

The target in the next experiment is Cathepsin S (Homo sapiens, UniProt P25774). The experiment is described as follows: Cathepsin S inhibition assay, fluorogenic peptide substrate. To be noted: Cathepsin S inhibition constant; pH5.5, 20 minutes preincubation at room temperature; read-out: Ki Cat. S. How it is done:
as §1, with “S, acetyl-histidine-proline-valine-lysine-amino” for “K, acetyl-lysine-histidine-proline-lysine-amino”, “S,” for “K,”, “0.3-3” for “3.5”, “acetyl-histidine-proline-valine-lysine-amino” for “acetyl-lysine-histidine-proline-lysine-amino”, “50” for “40”

Another experiment has as its target Cathepsin L (Homo sapiens, UniProt P07711). Briefly: Cathepsin L inhibition assay, fluorogenic peptide substrate (selectivity for Cat. S over Cat. L). To be noted: ratio of cathepsin L inhibition constant to cathepsin S inhibition constant. How it is done:
as §1, with “L, acetyl-histidine-lysine-phenylalanine-lysine-amino” for “K, acetyl-lysine-histidine-proline-lysine-amino”, “L,” for “K,”, “0.1” for “3.5”, “acetyl-histidine-lysine-phenylalanine-lysine-amino” for “acetyl-lysine-histidine-proline-lysine-amino”, “20” for “40”
as §2

Chain of Cathepsin L (P07711 114-333, species assumed): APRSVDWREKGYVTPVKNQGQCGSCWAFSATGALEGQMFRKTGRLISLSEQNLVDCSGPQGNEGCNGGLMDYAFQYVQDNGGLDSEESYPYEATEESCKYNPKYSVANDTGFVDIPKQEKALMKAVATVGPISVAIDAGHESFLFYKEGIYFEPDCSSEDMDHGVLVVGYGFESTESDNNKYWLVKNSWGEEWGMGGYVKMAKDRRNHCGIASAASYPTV
Chain of Cathepsin S (P25774 115-331, species assumed): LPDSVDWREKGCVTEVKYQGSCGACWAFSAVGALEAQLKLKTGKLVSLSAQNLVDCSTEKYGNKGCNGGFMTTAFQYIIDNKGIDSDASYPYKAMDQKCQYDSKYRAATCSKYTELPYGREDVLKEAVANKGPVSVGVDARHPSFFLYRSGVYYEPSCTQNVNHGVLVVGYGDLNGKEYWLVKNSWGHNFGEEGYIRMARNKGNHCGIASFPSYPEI

One may read the Ki as the dissociation constant of the complex between target and ligand, obtained from inhibition or displacement. With `CC(C)(C)C[C@@H](Cn1cnc2ccccc21)OC(=O)N[C@@H](CO)CN1CCc2cc(F)ccc21` [Example 12, 1-(S)-(Benzimidazol-1-ylmethyl)-3,3-dimethyl-butyl [2-(5-fluoro-2,3-dihydro-indol-1-yl)-1-(R)-hydroxymethyl-ethyl]carbamate], the “Selectivity for Cat. S over Cat. K” value at Cathepsin K was “− (−, <10)”. Further, the “Selectivity for Cat. S over Cat. B” value at Cathepsin B is on record as “+++ (+++, >1000)”. The Ki on Cathepsin S was less than 100 nM. Besides, the “Selectivity for Cat. S over Cat. L” value on Cathepsin L was “++ (++, >100)”.
For the molecule `C[C@@H](CN1CCc2cc(F)ccc21)NC(=O)O[C@@H](CC1CCCC1)Cn1cnc2cc(Cl)c(Cl)cc21` [Example 9, 1-(S)-cyclopentylmethyl-2-(5,6-dichloro-benzimidazol-1-yl)-ethyl [2-(5-fluoro-2,3-dihydro-indol-1-yl)-1-(S)-methyl-ethyl]carbamate], the “Selectivity for Cat. S over Cat. K” value at Cathepsin K is “+ (+, >10)”. Further, the “Selectivity for Cat. S over Cat. B” value at Cathepsin B is given as “+++ (+++, >1000)”. For the same molecule, on Cathepsin S, the Ki is less than 100 nM. The “Selectivity for Cat. S over Cat. L” value on Cathepsin L is given as “+ (+, >10)”.
For the molecule `C[C@@H](CNc1ccc(OC(F)F)cc1)NC(=O)O[C@@H](CC1CCCC1)Cn1ccc(C(F)(F)F)n1` [Example 7, 1-(S)-Cyclopentylmethyl-2-(3-trifluoromethyl-pyrazol-1-yl)-ethyl [2-(4-difluoromethoxy-phenylamino)-1-(S)-methyl-ethyl]carbamate], the “Selectivity for Cat. S over Cat. K” value at Cathepsin K is listed as “+ (+, >10)”. Moreover, the “Selectivity for Cat. S over Cat. B” value on Cathepsin B is reported as “++ (++, >100)”. The Ki on Cathepsin S was less than 1000 nM. The “Selectivity for Cat. S over Cat. L” value at Cathepsin L is listed as “++ (++, >100)”.
Turning to `CC(C)(C)C[C@H](Cn1cnc2cc(Cl)c(Cl)cc21)OC(=O)N[C@@H](CO)CN1CCc2cc(F)ccc21` [Example 1, 1-(R)-(5,6-Dichloro-benzimidazol-1-ylmethyl)-3,3-dimethyl-butyl [2-(5-fluoro-2,3-dihydro-indol-1-yl)-1-(R)-hydroxymethyl-ethyl]carbamate], the “Selectivity for Cat. S over Cat. K” value at Cathepsin K is “− (−, <10)”. For the same molecule, the “Selectivity for Cat. S over Cat. B” value on Cathepsin B was “+ (+, >10)”. The Ki on Cathepsin S is less than 10000 nM. Further, the “Selectivity for Cat. S over Cat. L” value at Cathepsin L is given as “+ (+, >10)”.
In the case of `CC(C)(C)C[C@@H](Cn1cnc2cc(Cl)c(Cl)cc21)OC(=O)N[C@@H](CO)CN1CCc2cc(F)ccc21` [Example 2, 1-(S)-(5,6-Dichloro-benzimidazol-1-ylmethyl)-3,3-dimethyl-butyl [2-(5-fluoro-2,3-dihydro-indol-1-yl)-1-(R)-hydroxymethyl-ethyl]carbamate], the “Selectivity for Cat. S over Cat. K” value on Cathepsin K is “++ (++, >100)”. In addition, the “Selectivity for Cat. S over Cat. B” value on Cathepsin B was “+++ (+++, >1000)”. Besides, on Cathepsin S, the Ki was less than 100 nM. Also, the “Selectivity for Cat. S over Cat. L” value at Cathepsin L was “+ (+, >10)”.
`C[C@@H](CNc1ccc(OC(F)F)cc1)NC(=O)O[C@@H](CC1CCCC1)Cn1cnc2cc(Cl)c(Cl)cc21` [Example 8, 1-(S)-Cyclopentylmethyl-2-(5,6-dichloro-benzimidazol-1-yl)-ethyl [2-(4-difluoromethoxy-phenylamino)-1-(S)-methyl-ethyl]carbamate]: on Cathepsin K, the “Selectivity for Cat. S over Cat. K” value is “+ (+, >10)”. In addition, the “Selectivity for Cat. S over Cat. B” value on Cathepsin B is “+++ (+++, >1000)”. At Cathepsin S, the Ki was less than 1000 nM. For the same molecule, the “Selectivity for Cat. S over Cat. L” value on Cathepsin L was “++ (++, >100)”.
In the case of `C[C@@H](CN1CCc2cc(F)ccc21)NC(=O)O[C@H](CN1CCOCC1)CC(C)(C)C` [Example 5, 3,3-Dimethyl-(S)-1-morpholin-4-ylmethyl-butyl [2-(5-fluoro-2,3-dihydro-indol-1-yl)-1-(S)-methyl-ethyl]carbamate], at Cathepsin K, the “Selectivity for Cat. S over Cat. K” value is reported as “− (−, <10)”. For the same molecule, on Cathepsin B, the “Selectivity for Cat. S over Cat. B” value is “++ (++, >100)”. Also, at Cathepsin S, the Ki is less than 1000 nM. Moreover, the “Selectivity for Cat. S over Cat. L” value at Cathepsin L was “++ (++, >100)”.
In the case of `C[C@@H](CN1CCc2cc(F)ccc21)NC(=O)O[C@H](Cn1cnc2ccccc21)CC(C)(C)C` [Example 4, 1-(S)-(Benzimidazol-1-ylmethyl-3,3-dimethyl)-butyl [2-(5-fluoro-2,3-dihydro-indol-1-yl)-1-(S)-methyl-ethyl]carbamate], at Cathepsin K, the “Selectivity for Cat. S over Cat. K” value is on record as “+ (+, >10)”. Also, at Cathepsin B, the “Selectivity for Cat. S over Cat. B” value is “+++ (+++, >1000)”. The Ki on Cathepsin S is less than 100 nM. Besides, the “Selectivity for Cat. S over Cat. L” value on Cathepsin L is listed as “++ (++, >100)”.
Take `C[C@@H](CN1CC(C)(C)c2cc(F)ccc21)NC(=O)O[C@H](Cn1cnc2ccccc21)CC(C)(C)C` [Example 11, 1-(S)-(Benzimidazol-1-ylmethyl-3,3-dimethyl)-butyl [2-(5-fluoro-3,3-dimethyl-2,3-dihydro-indol-1-yl)-1-(S)-methyl-ethyl]carbamate]: the “Selectivity for Cat. S over Cat. K” value on Cathepsin K is recorded as “− (−, <10)”. Moreover, the “Selectivity for Cat. S over Cat. B” value at Cathepsin B was “+++ (+++, >1000)”. Also, the Ki on Cathepsin S is less than 100 nM. The “Selectivity for Cat. S over Cat. L” value on Cathepsin L is on record as “++ (++, >100)”.
With `CC(C)(C)C(Cn1cnc2cc(Cl)c(Cl)cc21)OC(=O)N[C@@H](CO)CN1CCc2cc(F)ccc21` (mixture of isomers) [Example 3, 1-(5,6-Dichloro-benzimidazol-1-ylmethyl)-2,2-dimethyl-propyl [2-(5-fluoro-2,3-dihydro-indol-1-yl)-1-(R)-hydroxymethyl-ethyl]carbamate], the “Selectivity for Cat. S over Cat. K” value on Cathepsin K is on record as “+ (+, >10)”. Further, the “Selectivity for Cat. S over Cat. B” value on Cathepsin B is “+ (+, >10)”. In addition, the inhibitory constant (Ki) at Cathepsin S is less than 100 nM. The “Selectivity for Cat. S over Cat. L” value on Cathepsin L was “− (−, <10)”.
